Measurements as given in patent publication US8158672B2, “Fluoroalkoxy-substituted 1,3-dihydro-isoindolyl compounds and their pharmaceutical uses” (Celgene Corporation, priority 2002, dated 2012).

melting point [°C] | Structure (SMILES)
80 to 82 | CC(=O)Nc1cccc2c1C(=O)N(C(CC(=O)N(C)C)c1ccc(OC(F)F)c(OCC3CC3)c1)C2=O (centres unmarked) [Example 5, 3-(4-Acetylamino-1,3-dioxo-1,3-dihydro-isoindol-2-yl)-3-(3-cyclopropylmethoxy-4-difluoromethoxy-phenyl)-N,N -dimethyl-propionamide]
77 to 79 | CC(=O)Nc1cccc2c1C(=O)N(C(CC(N)=O)c1ccc(OC(F)F)c(OCC3CC3)c1)C2=O (centres unmarked) [Example 6, 3-(4-Acetylamino-1,3-dioxo-1,3-dihydro-isoindol-2-yl) -3-(3 cyclopropylmethoxy-4-difluoromethoxy-phenyl) -propionamide]
129 to 131 | O=C(CC(c1ccc(OC(F)F)c(OCC2CC2)c1)N1C(=O)c2ccccc2C1=O)NO (centres unmarked) [Example 8, 3-(3-Cyclopropylmethoxy-4-difluoromethoxy-phenyl) -3-(1,3-dioxo-1,3-dihydro-isoindol-2-yl)-N-hydroxy-propionamide]
70 to 72 | CN(C)C(=O)CC(c1ccc(OC(F)F)c(OCC2CC2)c1)N1Cc2cccc(N)c2C1=O (centres unmarked) [Example 14, 3-(7-Amino-1-oxo-1,3-dihydro-isoindol-2-yl)-3-(3-cyclopropylmethoxy-4-difluoromethoxy-phenyl)-N,N-dimethyl-propionamide]
105 to 107 | CCOc1cc(C(CC(=O)O)N2Cc3cccc(NC(C)=O)c3C2=O)ccc1OC(F)F (centres unmarked) [Example 22, 3-(7-Acetylamino-1-oxo-1,3-dihydro-isoindol-2-yl)-3-(4-difluoromethoxy-3-ethoxy-phenyl)-propionic acid]
179 to 181 | CCOc1cc(C(CC(N)=O)N2Cc3cccc(NC(=O)C4CC4)c3C2=O)ccc1OC(F)F (centres unmarked) [Example 24, Cyclopropanecarboxylic acid {2-[2-carbamoyl-1-(4-difluoromethoxy-3-ethoxy-phenyl)-ethyl]-3-oxo-2,3-dihydro-1H -isoindol-4-yl}-amide]
135 to 137 | CCOc1cc(C(CC(=O)N(C)C)N2Cc3cccc(NC(=O)C4CC4)c3C2=O)ccc1OC(F)F (centres unmarked) [Example 25, Cyclopropanecarboxylic acid {2-[1-(4-difluoromethoxy-3-ethoxy-phenyl)-2-dimethylcarbamoyl-ethyl]-3-oxo-2,3-dihydro-1H-isoindol-4-yl}-amide]
116 to 118 | CCOc1cc(C(CC(=O)NO)N2Cc3cccc(NC(=O)C4CC4)c3C2=O)ccc1OC(F)F (centres unmarked) [Example 26, Cyclopropanecarboxylic acid {2-[1-(4-difluoromethoxy-3-ethoxy-phenyl)-2-hydroxycarbamoyl-ethyl]-3-oxo-2,3-dihydro-1H-isoindol-4-yl}-amide]
129 to 131 | CCOc1cc(C(CC(N)=O)N2Cc3cccc(NC(C)=O)c3C2=O)ccc1OC(F)F (centres unmarked) [Example 27, 3-(7-Acetylamino-1-oxo-1,3-dihydro-isoindol-2-yl)-3-(4-difluoromethoxy-3-ethoxy-phenyl)-propionamide]
141 to 143 | CCOc1cc(C(CC(=O)N(C)C)N2Cc3cccc(NC(C)=O)c3C2=O)ccc1OC(F)F (centres unmarked) [Example 28, 3-(7-Acetylamino-1-oxo-1,3-dihydro-isoindol-2-yl)-3-(4-difluoromethoxy-3-ethoxy-phenyl)-N,N-dimethyl-propionamide]
121 to 123 | CCOc1cc(C(CC(=O)NO)N2Cc3cccc(NC(C)=O)c3C2=O)ccc1OC(F)F (centres unmarked) [Example 29, 3-(7-Acetylamino-1-oxo-1,3-dihydro-isoindol-2-yl)-3-(4-difluoromethoxy-3-ethoxy-phenyl)-N-hydroxy-propionamide]
89 to 91 | CCOc1cc(C(CC(=O)O)N2C(=O)c3cccc(NC(C)=O)c3C2=O)ccc1OC(F)F (centres unmarked) [Example 30, 3-(4-Acetylamino-1,3-dioxo-1,3-dihydro-isoindol-2-yl)-3-(4-difluoromethoxy-3-ethoxy-phenyl)-propionic acid]
178 to 180 | CCOc1cc(C(CC(N)=O)N2C(=O)c3cccc(NC(C)=O)c3C2=O)ccc1OC(F)F (centres unmarked) [Example 31, 3-(4-Acetylamino-1,3-dioxo-1,3-dihydro-isoindol-2-yl)-3-(4-difluoromethoxy-3-ethoxy-phenyl)-propionamide]
163 to 165 | CCOc1cc(C(CC(=O)N(C)C)N2C(=O)c3cccc(NC(C)=O)c3C2=O)ccc1OC(F)F (centres unmarked) [Example 32, 3-(4-Acetylamino-1,3-dioxo-1,3-dihydro-isoindol-2-yl)-3-(4-difluoromethoxy-3-ethoxy-phenyl)-N,N-dimethyl-propionamide]
148 to 150 | CCOc1cc(C(CC(=O)NO)N2C(=O)c3cccc(NC(C)=O)c3C2=O)ccc1OC(F)F (centres unmarked) [Example 33, 3-(4-Acetylamino-1,3-dioxo-1,3-dihydro-isoindol-2-yl)-3-(4-difluoromethoxy-3-ethoxy-phenyl)-N-hydroxy-propionamide]
115 to 117 | CCOc1cc(C(CS(C)(=O)=O)N2Cc3cccc(NC(=O)C4CC4)c3C2=O)ccc1OC(F)F (centres unmarked) [Example 35, Cyclopropanecarboxylic acid {2-[1-(4-difluoromethoxy-3-ethoxy-phenyl)-2-methanesulfonyl-ethyl]-3-oxo-2,3-dihydro-1H-isoindol-4-yl}-amide]
118 to 120 | CCOc1cc(C(CS(C)(=O)=O)N2C(=O)c3cccc(NC(C)=O)c3C2=O)ccc1OC(F)F (centres unmarked) [Example 36]
198 to 200 | CCOc1cc(C(CC(N)=O)N2Cc3c(Cl)ccc(NC(=O)C4CC4)c3C2=O)ccc1OC(F)F (centres unmarked) [Example 37, Cyclopropanecarboxylic acid {2-[2-carbamoyl-1-(4-difluoromethoxy-3-ethoxy-phenyl)-ethyl]-7-chloro-3-oxo-2,3-dihydro-1H-isoindol-4-yl}-amide]
109 to 111 | CCOc1cc(C(CC(=O)N2CCOCC2)N2C(=O)c3cccc(NC(C)=O)c3C2=O)ccc1OC(F)F (centres unmarked) [Example 38, N-{2-[1-(4-Difluoromethoxy-3-ethoxy-phenyl)-3-morpholin-4-yl-3-oxo-propyl]-1,3-dioxo-2,3-dihydro-1H-isoindol-4-yl}-acetamide]
164 to 166 | CCOc1cc(C(CC(=O)N2CCOCC2)N2Cc3cccc(NC(C)=O)c3C2=O)ccc1OC(F)F (centres unmarked) [Example 39, N-{2-[1-(4-Difluoromethoxy-3-ethoxy-phenyl)-3-morpholin-4-yl-3-oxo-propyl]-3-oxo-2,3-dihydro-1H-isoindol-4-yl}-acetamide]
83 to 85 | CC(=O)Nc1cccc2c1C(=O)N(C(CC(=O)N(C)C)c1ccc(OC(F)F)c(OC(F)F)c1)C2=O (centres unmarked) [Example 40, 3-(4-Acetylamino-1,3-dioxo-1,3-dihydro-isoindol-2-yl)-3-(3,4-bis-difluoromethoxy-phenyl)-N,N-dimethyl-propionamide]
175 to 177 | COC(=O)CC(c1ccc(OC(F)F)c(OC(F)F)c1)N1Cc2c(Cl)ccc(NC(=O)C3CC3)c2C1=O (centres unmarked) [Example 41, 3-(3,4-Bis-difluoromethoxy-phenyl)-3-[4-chloro-7-(cyclopropanecarbonyl-amino)-1-oxo-1,3-dihydro-isoindol-2-yl]-propionic acid methyl ester]
158 to 160 | CN(C)C(=O)CC(c1ccc(OC(F)F)c(OC(F)F)c1)N1Cc2cccc(NC(=O)C3CC3)c2C1=O (centres unmarked) [Example 42, Cyclopropanecarboxylic acid {2-[1-(3,4-bis-difluoromethoxy-phenyl)-2-dimethylcarbamoyl-ethyl]-3-oxo-2,3-dihydro-1H-isoindol-4-yl}-amide]
198 to 200 | NC(=O)CC(c1ccc(OC(F)F)c(OC(F)F)c1)N1Cc2cccc(NC(=O)C3CC3)c2C1=O (centres unmarked) [Example 43, Cyclopropanecarboxylic acid {2-[1-(3,4-bis-difluoromethoxy-phenyl)-2-carbamoyl-ethyl]-3-oxo-2,3-dihydro-1H-isoindol-4-yl}-amide]
191 to 193 | O=C(CC(c1ccc(OC(F)F)c(OC(F)F)c1)N1Cc2cccc(NC(=O)C3CC3)c2C1=O)NO (centres unmarked) [Example 44, Cyclopropanecarboxylic acid {2-[1-(3,4-bis-difluoromethoxy-phenyl)-2-hydroxycarbamoyl-ethyl]-3-oxo-2,3-dihydro-1H-isoindol-4-yl}-amide]
94 to 96 | O=C(O)CC(c1ccc(OC(F)F)c(OC(F)F)c1)N1Cc2cccc(NC(=O)C3CC3)c2C1=O (centres unmarked) [Example 45, 3-(3,4-Bis-difluoromethoxy-phenyl)-3-[7-(cyclopropanecarbonyl-amino)-1-oxo-1,3-dihydro-isoindol-2-yl]-propionic acid]
